The source of these data is patent publication US20080069899A1, “Pharmaceutical Compositions Comprising Beta-Carboline Derivatives and Use Thereof for the Treatment of Cancer” (priority 2004, published 2008).

“And” between values parts separate entries of the source, which are not always exact repeats. Equal entries are not always repeated. Where two headings read alike, the source gives them in different places.

Data set [1] relates to HBMEC (immortalized human bone marrow endothelial cell lines). The data set is described as follows: in vitro cytotoxicity test (neutral red, 96-well microplate). The following applies: 96 h, incubation 4 days. Format: cell-based. The method, then:
(§1) The cytotoxic effects of the different alkaloid extracts of P. harmala were studied on several cell lines: • human leukemia cell lines: K562 and Jurkat (leukemia), U937 (myeloma), • human solid tumor cell lines: KB (epithelioma of the nasopharynx) and HT29 (colon), • immortalized human bone marrow endothelial cell lines: HBMEC.
(§2) The cells are cultured in an oven under a 5% CO2 atmosphere and at 37° C., in RPMI 1640 medium for K562, Jurkat, U937 and HT29 and DMEM for KB, supplemented with 10% foetal calf serum, 0.01% penicillin-streptomycin and L-glutamine 2 mM and in EGM2 medium for the HBMEC cells.
(§3) The cytotoxicity test is carried out in a 96-well microplate in the presence of the extract to be tested at varying concentrations of 40, 20, 10, 5, 1, 0.5 μg/ml and in the absence of product, after incubation for 4 days at 37° C. On the 3rd day, a solution of neutral red is added which is absorbed by living cells. The optical density (OD) of dye released by lyzed cells is measured at 540 nm by an Elisa plate reader. The toxicity (% inhibition of growth) is inversely proportional to the optical density.
(§4) The percentage of inhibition is defined as being the difference between the OD without product and the OD in the presence of product compared to the OD without product.
(§5) The concentration inhibiting 50% of cell growth is obtained from the curve representing the percentage of inhibition as a function of the logarithm of the concentration.

Another data set deals with HT29 (colon). Described as above. The following applies: Homo sapiens, HT-29, 96 h, incubation 4 days. Format: cell-based. How it is done:
as §1, §2, §3, §4, §5

Another data set concerns Jurkat (leukemia). The data set is described as above. Format: cell-based. The note with it: Homo sapiens, 96 h, incubation 4 days. The method, then: as §1, §2, §3, §4, §5
Data set [2] deals with KB (epithelioma of the nasopharynx). Described as above. The format is cell-based. The following applies: Homo sapiens, 96 h, incubation 4 days. How it is done: as §1, §2, §3, §4, §5
The test system of another data set is U937 (myeloma). The data set is described as above. The format is cell-based. The following applies: Homo sapiens, U-937, 96 h, incubation 4 days. How it is done:
as §1, §2, §3, §4, §5

The subject of data set [3] is malignant and endothelial cells tested. The data set is described as follows: summary of in vitro cytotoxicity over all lines tested. The note with it: Homo sapiens, Endothelial cell, range over the cell lines; read-out: IC50 vis-à-vis malignant and endothelial cells tested. Format: cell-based, human. How it is done: as §1, §2, §3, §4, §5
To summarize, the IC50 vis-à-vis malignant and endothelial cells tested is the following: […]

The subject of data set [4] is HT29 human colon tumor cells. The data set is described as follows: in vivo antineoplastic activity, NOD-SCID mice xenografted with HT29 human tumour cells. How it is done: (§6) The animal model chosen is that of severe combined immunodeficient (NOD-SCID) mice having received a xenograft of human tumor cells.
(§7) Male and female NOD-SCID mice, more than 3 months old, were raised in an environment of strict sterility, in an insulator ventilated with filtered air and sterilized, at 22° C. and 40% humidity, with a day-12 h/night-12 h cycle. The cages, feeding bottles and the water were sterilized in an autoclave at 120° C. for 30 minutes and the food as well as the bedding were treated with γ-irradiation. All handling took place in aseptic conditions under a laminar flow hood.
The mice were subjected to general anaesthesia by i.p. injection of 0.3 to 0.4 ml of hypnomidate at 2 mg/ml. 1×10^7 HT29 human colon tumor cells in suspension in 200 μl of PBS were then injected sub-cutaneously, into the backs of the mice. […]
50 mg of 5-fluorouracil (Sigma) were dissolved in 8 ml of water and the solution obtained was sterilized by filtration on a membrane with 0.22 μm porosity. […]

The procedure of data set [5]:
as §6, §7
150 mg of cyclophosphamide (Sigma) were dissolved in 8 ml of water and the solution obtained was sterilized by filtration on a membrane with 0.22 μm porosity.
50 mg of 5-fluorouracil (Sigma) were dissolved in 8 ml of water and the solution obtained was sterilized by filtration on a membrane with 0.22 μm porosity.
100 mg of dihydrated harmalacidine hydrochloride were dissolved in 8 ml of water and the solution obtained was sterilized by filtration on a membrane with 0.22 μm porosity. The mice received either 25, 50, or 100 mg/kg/day of harmalacidine alone, or a mixture of 25 or 50 mg/kg/day of harmalacidine+50 mg/kg/day of cyclophosphamide.

Data set [6] concerns HT29 human colon tumor cells. The data set is described as follows: in vivo antineoplastic activity, NOD-SCID mice xenografted with HT29 human tumour cells. This is another data set of the same source.
Another data set has as its system K562 (leukemia). The data set is described as follows: in vitro cytotoxicity test (neutral red, 96-well microplate). Format: cell-based. The following applies: Homo sapiens, 96 h, incubation 4 days. How it is done: as §1, §2, §3, §4, §5
A further data set concerns murine tumorous cells. The note with it: cited from earlier work.

Turning to `COc1ccc2c(c1)[nH]c1c(C)nccc12` [Harmine (A), harmine], the half-inhibitory concentration (IC50) in [1] was 3.5 µg/mL and 16.5 µM; in the data set with HT29 (colon), 2.9 µg/mL and 13.7 µM; in the data set with Jurkat (leukemia), 3.2 µg/mL and 15.1 µM; in data set [2], 4.6 µg/mL and 21.7 µM; with U937 (myeloma), 16.5 µM; in [3], 2.9 µg/mL to 4.6 µg/mL and 14 µM to 22 µM. Moreover, the “inhibitory action on the growth of the tumors” value in [4] (harmine 100 mg/kg/day per os) is “very weak effect”. Besides, the “Average volume of the tumours of the treated mice compared to the average volume of the tumours of the non-treated mice (T/C) (%)” value in data set [4] (harmine 100 mg/kg/day per os, Day 30) worked out at 74%; in [4] (harmine 100 mg/kg/day per os, Day 50), 84%; in data set [4] (harmine 100 mg/kg/day per os, Day 60), 105%; in data set [4] (harmine 125 mg/kg/day per os, Day 40), 58%; in data set [4] (harmine 125 mg/kg/day per os, Day 50) it was 54%; in [4] (harmine 125 mg/kg/day per os, Day 60), 67%. For the same molecule, the “Average volume of the tumours of the treated mice compared to the average volume of the tumours of the non-treated mice (T/C) (%)” value in data set [4] (harmine 150 mg/kg/day per os, Day 30) amounted to 41%; in data set [4] (harmine 150 mg/kg/day per os, Day 40) it was 46%; in data set [4] (harmine 150 mg/kg/day per os, Day 50), 42%; in data set [4] (harmine 150 mg/kg/day per os, Day 60), 51%; in data set [4] (harmine 175 mg/kg/day per os, Day 30), 40%; in data set [4] (harmine 175 mg/kg/day per os, Day 60) it was 40%. In addition, the “Average volume of the tumours of the treated mice compared to the average volume of the tumours of the non-treated mice (T/C) (%)” value in data set [6] (harmine 100 mg/kg/day per os, Day 40) was found to be 77%; in data set [6] (harmine 125 mg/kg/day per os, Day 30), 55%; in data set [6] (harmine 175 mg/kg/day per os, Day 40), 10%; in [6] (harmine 175 mg/kg/day per os, Day 50) it was 30%. Moreover, in [4] (harmine 175 mg/kg/day per os, for the entire duration of treatment), the T/C was 40%. Besides, the “tolerance of the dose” value in [5] (harmine 200 mg/kg/day per os, the mice died after a few days of treatment) is reported as “not tolerated”.
As to `COc1ccc2c3c([nH]c2c1)C(=O)NCC3` [Harmalacidine (C), harmalacidine], the IC50 in data set [1] was 28 µg/mL and 130 µM; in the data set on HT29 (colon) it was 10.5 µg/mL and 34.4 µM; in the data set with Jurkat (leukemia) it was 15.5 µg/mL and 71.7 µM; in the data set with K562 (leukemia), 12.5 µg/mL and 57.8 µM; in data set [2], 12 µg/mL and 55.5 µM; in the data set with U937 (myeloma) it was 29 µg/mL and 134 µM. Further, the “Average volume of the tumours of the treated mice compared to the average volume of the tumours of the non-treated mice (T/C) (%)” value in data set [4] (harmalacidine 25 mg/kg/day alone per os, Day 15) was found to be 81%; in data set [4] (harmalacidine 25 mg/kg/day alone per os, Day 30), 72%; in [4] (harmalacidine 25 mg/kg/day alone per os, Day 40) it was 70%; in data set [4] (harmalacidine 25 mg/kg/day alone per os, Day 50), 65%; in data set [4] (harmalacidine 25 mg/kg/day alone per os, Day 60), 77%; in [4] (harmalacidine 50 mg/kg/day alone per os, Day 15), 42%. Moreover, the “Average volume of the tumours of the treated mice compared to the average volume of the tumours of the non-treated mice (T/C) (%)” value in data set [4] (harmalacidine 50 mg/kg/day alone per os, Day 30) came to 56%; in data set [4] (harmalacidine 50 mg/kg/day alone per os, Day 40), 48%; in [4] (harmalacidine 50 mg/kg/day alone per os, Day 50), 45%; in data set [4] (harmalacidine 50 mg/kg/day alone per os, Day 60), 57%. In addition, in data set [5] (harmalacidine 100 mg/kg/day alone, Day 15), the “state of the mice (printed in the T/C column)” value is reported as “dead”. In data set [5] (harmalacidine 100 mg/kg/day, for more than 10 days), the “tolerance of the dose” value is on record as “not tolerated”.
In the case of Peganine [Peganine (B)], the “concentration inhibiting 50% of cell growth (IC50)” value in the data set with murine tumorous cells was “inactive”.
